Data: paper PMC7690861, “Topical Administration of Cannabidiol: Influence of Vehicle-Related Aspects on Skin Permeation Process” (Pharmaceuticals, 2020)
In brackets after ≈: the same amount, converted by molar mass. Like-named read-outs stand apart in the source and are kept apart here. Marks after values point to notes of the source that are not given here.

Experiments:
[1] = set-up: method as in Burke [29]; details: experimental; ref Burke [29]; cited from earlier work
[2] = Preliminary chemical stability of CBD in tested formulations (total impurities); assay type: physicochemical; details: over the preparation process and the permeation experiments; preliminary data
Text: Evidence in the literature highlighted that CBD was quite unstable in a solution for a long period. Even if an in-depth investigation of the chemical stability of CBD loaded in the tested formulation has not been performed yet, preliminary data highlighted that CBD was stable over both the preparation process and the permeation experiments (total impurities < 2% of CBD assay). […] Further studies are needed to determine the long-term stability of the tested formulations.
HPLC analysis was run using an HP 1100 ChemStation system (Agilent Technologies Inc, USA), acetonitrile/phosphate buffer pH 3.0 (75/25, v/v) was used as mobile phase at a flow rate of 1.5 mL/min, injection volume was set at 20 μL. The UV detector was set at a wavelength of 215 nm. A reverse-phase C8 column (InertClone™, 5 μm, 150 × 4.6 mm; Phenomenex Inc, Torrance, USA) was used. The retention time of the CBD was 4.0 min. Two calibration curves were made in the overall range of 0.02–100 μg/mL.

[3] = Fedors method; ref Minghetti et al. [26]; cited from earlier work

Protocol for physchem: The equilibrium solubility of CBD in each of the above-mentioned solvent systems was determined by the shake-flask method. An excess quantity of the cannabinoid compound was added to 1 mL of each test solution in a glass vial. […] In the case of aqueous solutions, the supernatant fluid was then filtered (0.45 μm PP syringe filter) and properly diluted in methanol before being analyzed by HPLC. In the case of oily solutions, the supernatant fluid was filtered (0.45 μm PVDF syringe filter); then, 60 μL of the filtered solution was withdrawn and added to 5 mL of methanol; the mixture was vortexed for 1 min and allowed to stand for 1 min three times, then it was centrifuged (4000 rpm, 2 min); the supernatant fluid was sampled and properly diluted in methanol before being analyzed by HPLC. Each solubility value was calculated as the mean of three independent shake-flask experiments, considering any dilution factors and an extraction efficiency factor in case of oily solutions.

Molecule: CC(O)CO (stereo not shown) [Propylene glycol]
- δ (solubility parameter) [1]: 14.80 ^d cal/cm^3

Molecule: C=C(C)[C@@H]1CCC(C)=C[C@H]1c1c(O)cc(CCCCC)cc1O [CBD, Cannabidiol]
- Total impurities [2]: < 2 % of CBD assay
- solubility at 24 h (physchem): 2240 ± 80 µg/mL (≈ 7.12 mM)

Molecule: O-acylglucosylceramide
- δ (solubility parameter) [3]: 10.03 ^a cal/cm^3
